The test system of the assay is MazF-mt3(Δ16–22). In kind it is biochemical, Mycobacterium tuberculosis. To be noted: FAM-labeled 13-nt RNA substrate; Figure 4B, Figure S9.

Consider “MazE-mt3 α3–α4: peptide corresponding to the last two helices (α3-α4, Leu46-Trp82) of MazE-mt3; cocrystallized with MazF-mt3 (PDB 8ZWS) (LTGQIDRALESIHGTDEAEALAVANAYRVLETMDDEW)”, for which the “inhibitory effect against the loop-truncated MazF-mt3 enzyme compared with the full-length antitoxin” value is “strong inhibitory effect comparable to that of the full-length MazE-mt3”.

For the origin of these results see article PMC11394972 (International Journal of Molecular Sciences, 2024).
